Source: patent publication US4937232A, “Inhibition of protein kinase C by long-chain bases” (priority 1988, dated 1990)
Read-outs that look alike come from different tables or passages of the source.

How the values were obtained:
[1] = tested on: HL-60 cells; assay: PMA-induced adherence (attachment) of HL-60 cells; assay type: cell-based, human; conditions: for IC50: Homo sapiens; for Adherent cells (%): 72 h
Protocol: (§1) Cells were centrifuged at 600 g for 3 min, and added at 1×10^5 cells per well in 12-well culture dishes. Medium, PMA, and long-chain bases (prepared as the 1:1 molar complex with fatty acid-free bovine serum albumin) at the indicated concentrations were added for a total volume of 2.0 ml. After the desired times, the cells in suspension were counted and checked for viability (trypan blue exclusion) with a hemacytometer. The attached cells were quantitated by measuring DNA content according to the method of West et al (Anal. Biochem., 147, 289-295, 1985) and by assaying for acid phosphatase according to the method of Schnyder (J. Exp. Med., 148, 434-445, 1978).

[2] = tested on: protein kinase C; assay: Triton X-100 mixed micellar assay for protein kinase C activity; assay type: biochemical, rat; conditions: for inhibition of protein kinase C (specificity): mixed micellar assay
Protocol: Protein kinase C was partially purified from rat brain as described by Hanrun et al (J. Biol. Chem., 260, 10043, 1985), which is hereby incorporated by reference.
Protein kinase C was assayed with Triton X-100 mixed micelles as described by Hanrun et al, (ibid.), Sphingosine was dried down with the lipid cofactors.

[3] = tested on: protein kinase C-induced phosphorylation of the 40 KDa polypeptide; assay: 40K (40 kDa) protein phosphorylation in human platelets; assay type: cell-based
Protocol: They were then suspended in modified Tyrode's buffer to a concentration of 2.5×10^8 platelets/ml.
^32 Pi at 0.2 mCi/ml was added to the platelet suspension and labelling was allowed to proceed for 75 minutes at 37° C., after which the platelets were pelleted at 600×g for 10 minutes and resuspended in Tyrode's buffer to the same concentration. They were then aliquoted in Eppendorf microfuge tubes and preincubated at 37° C. for 5 minutes with the varying concentrations of sphingosine. Platelets were then stimulated with either 5 μM dioctanoylglycerol (added as an ethanol solution with the final concentration of ethanol 0.5%), 10 μM TPA, or 1 unit/ml thrombin. The reactions were stopped after 30 seconds by the addition of an equal volume of 2× sample buffer, and the samples were then boiled for 3 minutes. […] Gels were subsequently fixed in water/methanol/acetic acid (60:30:10), dried, and autoradiographed.

[4] = tested on: human platelets; assay: [3H]PDBu binding to human platelets
Protocol: Human platelets, prepared as described above, were suspended at a concentration of 2.5×10^8 platelet/ml. 50 μl of the platelets were then incubated for five minutes with the indicated concentration of sphingosine in Eppendorf microfuge tubes. Sphingosine was prepared in 50% ethanol at a concentration 100-fold the final concentration so that ethanol was kept at 0.5%. [^3 H]PDBu was added to 10 nM and incubated with the platelets at 37° for 10 minutes. The samples were then filtered on Whatman GF/C filters pre-washed with 5 ml of modified Tyrode's buffer containing 0.1% bovine serum albumin, washed with 10 ml of the same buffer, dried, and counted in 10 ml of Aquasol II in an LKB beta counter. Non-specific binding was determined in the presence of 1 μM unlabelled PDBu and subtracted from the total counts to yield the specific binding.

[5] = tested on: human neutrophils; assay: Oxygen consumption (oxidative burst) of human neutrophils; assay type: cell-based; conditions: for IC50: Homo sapiens, Neutrophil
Excerpt: Human neutrophils were obtained by continuous flow leukapheresis from normal adults. Residual erythrocytes were removed by hypotonic lysis with a resulting purity of >95% neutrophils. Alternatively peripheral blood was obtained by phlebotomy and neutrophils were isolated by HESPAN (6% Hetastarch, 0.9% NaCl) sedimentaion of erythrocytes, centrifugation through lymphocyte separation medium (9.4% sodium diatrizoate, 6.2% Ficoll), and hypotonic lysis of residual erythrocytes. Isolated cells were resuspended in phosphate buffered saline (PBS)-glucose, containing 0.6 mM CaCl2, 2.6 mM KCl, 1.5 mM KH2 PO4, 0.5 mM MgCl2, 136 mM NaCl, 8 mM Na2 HPO4, 5.5 mM glucose.
Oxygen consumption was measured using a Clark-type electrode with YSI model 53 oxygen monitor. Assays were conducted at 37° C. with 6.5×10^6 cells per ml with a total volume of either 2.5 ml or 4 ml. Effectors were injected into the electrode chamber using a Hamilton syringe. Initial slopes after the addition of the stimuli were used for rate calculations. For activators with a lag prior to the onset of the oxidative burst, maximal rates following the lag were used.

[6] = HL-60 cell growth and viability; assay type: cell-based, human; conditions: human, hl-60 cells, 24 h; for viability at 24 h, 2.5 µM: 2.5 μM sphinganine; for viability at 24 h, 5 µM: 5 μM sphinganine
Protocol: (§2) The HL-60 cells (obtained from the American Type Culture Collection, ATCC CCL240) were grown at 37° as a suspension culture in 175 cm^2 Nunc tissue culture flasks (Vangard International, Neptune, N.J.). The cells were subcultured at a density of 0.25×10^6 cells/ml and used between passage numbers 30 and 40.
as §1

[7] = tested on: HL-60 cells; assay: HL-60 cell growth and viability; assay type: cell-based, human
Protocol: as §2, §1

[8] = Neutrophil viability (Trypan Blue exclusion, LDH release); assay type: cell-based; conditions: human, neutrophils, 50 μM sphinganine, 1.2×10^7 cells/ml
Protocol: Cell viability was assessed by two criteria: Trypan Blue exclusion and release of the cytosolic enzyme, lactate dehydrogenase (LDH). LDH activity was monitored by following the oxidation of NADH at 340 nm. […] Trypan Blue exclusion was determined microscopically.

[9] = oxidative burst, PMA activation, read-out: Concentration required for 50% inhibition
[10] = 8 nM PMA, read-out: Percent viability of suspended cells
[11] = No PMA, read-out: Percent viability of suspended cells

With CCCCCCCCCCCCC/C=C/[C@@H](O)[C@@H](N)CO [sphingosine] the IC50 ([1]; HL-60, read-out: 50% inhibition of PMA-induced attachment) was 1 µM, the “Hill number of the PS dependence of protein kinase C activation” value ([2]; 2 mol % sphingosine) was 6.9 and the “Hill number of the PS dependence of protein kinase C activation” value ([2]; 4 mol % sphingosine) was 8.8. The “type of inhibition with respect to diC18:1” value ([2]; 6 mol % PS, 50 μM Ca2+, double reciprocal plots) was “competitive”, the IC50 ([2]; Triton X-100 mixed micelles, 6 mol % PS, 2 mol % diC18:1, read-out: 50% inhibition of protein kinase C activity) was 100 µM and the “type of inhibition with respect to phorbol dibutyrate” value ([2]; double reciprocal plots) was “competitive inhibition”. For the same compound, the “type of inhibition with respect to Ca2+” value ([2]; fixed PS and diC18:1, 3 and 4 mol % sphingosine) was “appeared competitive”, the “inhibition of protein kinase C (specificity)” value [2] was “potent and reversible inhibitor” and the “inhibition of thrombin-induced 40K phosphorylation” value ([3]; 25 μM sphingosine) was “nearly complete inhibition”. The “inhibition of thrombin-induced 40K phosphorylation” value ([3]; concentrations as low as 10 μM) was “Partial inhibition”, the “inhibition of TPA and diC8-induced 40K phosphorylation” value ([3]; data not shown) was “inhibited” and the “sphingosine required for complete inhibition (mol % sphingosine:phospholipids)” value ([3]; platelet 40K phosphorylation, similar to in vitro inhibition of protein kinase C) was 3-5 mol %. For the same compound, the “inhibition of [3H]PDBu binding to whole human platelets” value [4] was “able to inhibit this binding” and the IC50 [5, 9] was 9 µM.
For CCCCCCCCCCCCCCC[C@@H](O)[C@@H](N)CO (relative stereo) [Sphinganine, erythro-dihydrosphingosine], the viability at 24 h, 1 µM ([6]; 8 nM PMA + 1 μM sphinganine, read-out: % Viability) was 93%, the viability at 24 h, 1 µM ([6]; 8 nM PMA, 1 μM sphinganine, read-out: Percent viability of suspended cells) was 87% and the viability at 24 h, 2.5 µM [6, 10] was 94%. The viability at 24 h, 5 µM [6, 10] was 80%, the viability at 24 h, 1 µM ([6]; 1 μM sphinganine, no PMA, read-out: % Viability) was 95% and the viability at 24 h, 1 µM ([6]; No PMA, 1 μM sphinganine, read-out: Percent viability of suspended cells) was 90%. For the same compound, the viability at 24 h, 2.5 µM [6, 11] was 98%, the viability at 24 h, 5 µM [6, 11] was 87% and the “HL-60 cell growth (doubling)” value ([7]; 1 μM sphinganine, first 24 h) was “not changed”. For the same compound, the HL-60 cytotoxicity ([7]; 5 μM sphinganine, second day) was “significant cell death”, the HL-60 cell growth ([7]; 1 and 2.5 μM sphinganine, second day) was “inhibited growth without cytotoxicity” and the HL-60 cell growth ([7]; 2.5 and 5 μM sphinganine, first 24 h) was “limited growth”. The “% Adherence” value ([1]; 8 nM PMA + 1 μM sphinganine, 24 h) was 26%, the “% Adherence” value ([1]; 8 nM PMA + 1 μM sphinganine, 24 h, listed as Sa) was 25.5 ± 7.7% and the Adherence ([1]; 8 nM PMA + 2.5 μM sphinganine) was 17.6±6.4%. The Adherence ([1]; 8 nM PMA + 5 μM sphinganine) was 15.0±2.1%, the “number of adherent cells” value ([1]; 8 nM PMA plus 1 μM sphinganine, 24 h) was 0.51 ×10^5 and the “Adherent cells (%)” value ([1]; 8 nM PMA, 1 μM sphinganine) was 85%. For the same compound, the “Adherent cells (%)” value ([1]; 8 nM PMA, 2.5 μM sphinganine) was 74%, the “Adherent cells (%)” value ([1]; 8 nM PMA, 5 μM sphinganine) was 70% and the “% Adherence” value ([1]; 1 μM sphinganine, no PMA, 24 h) was 3.7 ± 0.7%. For the same compound, the IC50 ([1]; HL-60, 8 nM PMA, read-out: 50% inhibition of PMA-induced attachment) was 3 µM, the “Adherent cells (%)” value ([1]; No PMA, 1 μM sphinganine) was 9% and the “Adherent cells (%)” value ([1]; No PMA, 2.5 μM sphinganine) was 11%. The “Adherent cells (%)” value ([1]; No PMA, 5 μM sphinganine) was 6%, the “inhibition of protein kinase C (specificity)” value [2] was “inhibitors” and the “PMA-induced oxygen consumption after washing out sphinganine” value ([5]; 40 μM sphinganine 5-10 min, then washed twice with 50 μM fatty acid-free BSA) was 3.7 nmols/min/10^6 cells. The “RATE of oxygen consumption, SPHINGANINE” value ([5]; 50 μM sphinganine 3 min before Arachidonate (83 μM)) was 0.2 nmols O2 consumed/min/10^6 cells, the “RATE of oxygen consumption, SPHINGANINE” value ([5]; 50 μM sphinganine 3 min before Dioctanoyl Glycerol (100 μM)) was 0.3 nmols O2 consumed/min/10^6 cells and the “RATE of oxygen consumption, SPHINGANINE” value ([5]; 50 μM sphinganine 3 min before FMLP (0.5 μM) + Cytochalasin B (5 μg/ml)) was 0.3 nmols O2 consumed/min/10^6 cells. For the same compound, the “RATE of oxygen consumption, SPHINGANINE” value ([5]; 50 μM sphinganine 3 min before Opsonized zymosan (30 μg/ml)) was 0.3 nmols O2 consumed/min/10^6 cells, the “RATE of oxygen consumption, SPHINGANINE” value ([5]; 50 μM sphinganine 3 min before Phorbol Myristate Acetate (1 μM)) was 0.2 nmols O2 consumed/min/10^6 cells and the IC50 ([5]; activator PMA, read-out: half maximal inhibition of oxygen consumption) was 6.7 µM. It also gave an IC50 ([5]; activator dioctanoylglycerol, read-out: half maximal inhibition of oxygen consumption) of 7.4 µM, an IC50 ([5]; activator opsonized zymosan, read-out: half maximal inhibition of oxygen consumption) of 5.6 µM and an IC50 ([5]; approximately 7.5×10^6 cells/ml, read-out: concentration for 50% inhibition, oxygen consumption assay) of 6 to 8 µM. The IC50 [5, 9] was 7 µM, the “activation of the oxidative burst by A23187” value ([5]; preliminary studies) was “blocked” and the viability at 50 µM ([8]; read-out: cellular LDH retained) was greater than 96%. The viability at 50 µM ([8]; read-out: viability by Trypan Blue exclusion) was greater than 95%.
